Test [1] has as its system OPM-2 human multiple myeloma cell line. The experiment in a line: Cell Viability Assay (OPM-2 10 FBS). Format: cell-based. To be noted: OPM-2 cells, 16 h, CellTiter-Glo. Put shortly:
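IC50 from 4-parameter logistic fit of CellTiter-Glo luminescence. 3000 cells/well, 10% FBS medium, serial compound dilutions, 16 h, 37 °C/5% CO2; read 25 min post-reagent.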

The target in test [2] is T1, Mcl-1/Bim interaction, recombinant human Mcl-1 (171-327) (Homo sapiens, UniProt Q07820).
T1 construct: made in house
T1 sequence (Q07820 171-327): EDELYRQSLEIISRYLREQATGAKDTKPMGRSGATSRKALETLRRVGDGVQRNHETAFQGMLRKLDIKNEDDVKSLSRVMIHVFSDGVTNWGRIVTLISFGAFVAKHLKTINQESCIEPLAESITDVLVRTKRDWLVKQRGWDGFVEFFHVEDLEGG
Nature of the test: Cell free Mcl-1: Bim Affinity Assay (Mcl-1 HTRF). The conditions noted are these: cell free Mcl-1:Bim TR-FRET, recombinant human Mcl-1 (171-327). Format: binding. The procedure, abridged: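 Compounds were mixed with the protein and a biotinylated Bim peptide spanning human residues 51-76. Plates were left overnight, then TR-FRET signal was measured. A four-parameter sigmoidal model applied to duplicate competition data gave IC50.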
Background: Time-resolved FRET reads energy transfer from a long-lived donor to a nearby acceptor.

The term IC50 denotes the concentration that inhibits the measured activity by half. For `C[C@@H]1[C@@H](C)C/C=C/[C@H](OCCN2CC(F)C2)[C@@H]2CC[C@H]2CN2C[C@@]3(CCCc4cc(Cl)ccc43)COc3ccc(cc32)C(=O)NS1(=O)=O` [Example 532, (1S,3′R,6′R,7′S,8′E,11′S,12′R)-6-chloro-7′-(2-(3-fluoro-1-azetidinyl)ethoxy)-11′,12′-dimethyl-3,4-dihydro-2H,15′H-spiro[naphthalene-1,22′-[20]oxa[13]thia[1,14]diazatetracyclo[14.7.2.0^3,6.0^19,24]pentacosa [8,16,18,24]tetraen]-15′-one 13′,13′-dioxide], the IC50 in test [1] (Homo sapiens, OPM-2, 16 h) came out at 0.155 µM; in test [2] it was 0.000427 µM.
For `CC[N+](CC)(CC)CCO[C@H]1/C=C/C[C@H](C)[C@@H](C)S(=O)(=O)NC(=O)c2ccc3c(c2)N(C[C@@H]2CC[C@H]21)C[C@@]1(CCCc2cc(Cl)ccc21)CO3` [Example 533, 2-(((1S,3′R,6′R,7′S,8′E,11′S,12′R)-6-chloro-11′,12′-dimethyl-13′,13′-dioxido-15′-oxo-3,4-dihydro-2H-spiro[naphthalene-1,22′-[20]oxa[13]thia[1,14]diazatetracyclo[14.7.2.0^3,6.0^19,24]pentacosa [8,16,18,24]tetraen]-7′-yl)oxy)-N,N,N-triethylethanaminium 2,2,2-trifluoroacetate] the same measures were 14.2 µM and 0.000583 µM.
For `C[C@@H]1[C@@H](C)C/C=C/[C@H](OCCN2CCOC[C@@H]2C)[C@@H]2CC[C@H]2CN2C[C@@]3(CCCc4cc(Cl)ccc43)COc3ccc(cc32)C(=O)NS1(=O)=O` [Example 534, (1S,3′R,6′R,7′S,8′E,11′S,12′R)-6-chloro-11′,12′-dimethyl-7′-(2-((3S)-3-methyl-4-morpholinyl)ethoxy)-3,4-dihydro-2H,15′H-spiro[naphthalene-1,22′-[20]oxa[13]thia[1,14]diazatetracyclo[14.7.2.0^3,6.0^19,24]pentacosa [8,16,18,24]tetraen]-15′-one 13′,13′-dioxide] the same measures were 0.0993 µM and 0.000788 µM.
The like results for `CO[C@@H]1/C=C/[C@H](O)[C@@H]2CC[C@H]2CN2C[C@@]3(CCCc4cc(Cl)ccc43)COc3ccc(cc32)C(=O)NS(=O)(=O)CC1` [Example 536, (1S,3′R,6′R,7′S,8′E,10′S)-6-chloro-7′-hydroxy-10′-methoxy-3,4-dihydro-2H,15′H-spiro[naphthalene-1,22′-[20]oxa[13]thia[1,14]diazatetracyclo[14.7.2.0^3,6.0^19,24]pentacosa [8,16,18,24]tetraen]-15′-one 13′,13′-dioxide] were, in that order, 21.3 µM and 0.00199 µM.
On to `COC(=O)CCC1(C)CCC=CC(O)C2CCC2CN2CC3(CCCc4cc(Cl)ccc43)COc3ccc(cc32)C(=O)NS1(=O)=O` (stereo not drawn) [Example 560], for which the concentration for half-maximal inhibition (IC50) was determined as 12.2 µM in test [1] (Homo sapiens, OPM-2, 16 h) and 0.00483 µM in test [2].
Turning to `CC(C)OC(=O)C[C@@H]1[C@@H](C)C/C=C\[C@H](O)[C@@H]2CC[C@H]2CN2C[C@@]3(CCCc4cc(Cl)ccc43)COc3ccc(cc32)C(=O)NS1(=O)=O` [Example 568], the IC50 in test [1] was determined as 1.31 µM; in test [2], 0.0011 µM.
Turning to `CC(C)OC(=O)C[C@@H]1[C@@H](C)/C=C\C[C@H](O)[C@@H]2CC[C@H]2CN2C[C@@]3(CCCc4cc(Cl)ccc43)COc3ccc(cc32)C(=O)NS1(=O)=O` [Example 569], the half-inhibitory concentration (IC50) in test [1] (Homo sapiens, OPM-2, 16 h) turned out to be 0.759 µM; in test [2] it was 0.00102 µM.
As to `CC(C)OC(=O)C[C@@H]1[C@@H](C)C/C=C\[C@H](O)[C@@H]2CC[C@H]2CN2C[C@@]3(CCCc4cc(Cl)ccc43)COc3ccc(cc32)C(=O)NS1(=O)=O` [Example 570], the results for the concentration for half-maximal inhibition (IC50) in test [1] and in test [2] were 3.02 µM and 0.00844 µM, respectively.
With `COC(=O)CN[C@H]1/C=C/CC[C@@H](C)S(=O)(=O)NC(=O)c2ccc3c(c2)N(C[C@@H]2CC[C@H]21)C[C@@]1(CCCc2cc(Cl)ccc21)CO3` [Example 599, methyl N-((1S,3′R,6′R,7′S,8′E,12′R)-6-chloro-12′-methyl-13′,13′-dioxido-15′-oxo-3,4-dihydro-2H-spiro[naphthalene-1,22′-[20]oxa[13]thia[1,14]diazatetracyclo[14.7.2.0^3,6.0^19,24]pentacosa [8,16,18,24]tetraen]-7′-yl)glycinate-trifluoroacetic Acid], the half-maximal inhibitory concentration (IC50) in test [1] (Homo sapiens, OPM-2, 16 h) came out at 0.651 µM; in test [2], 0.00151 µM.
Turning to `COC(=O)CN(CC(=O)OC)[C@H]1/C=C/CC[C@@H](C)S(=O)(=O)NC(=O)c2ccc3c(c2)N(C[C@@H]2CC[C@H]21)C[C@@]1(CCCc2cc(Cl)ccc21)CO3` [Example 600, dimethyl 2,2′-(((1S,3′R,6′R,7′S,8′E,12′R)-6-chloro-12′-methyl-13′,13′-dioxido-15′-oxo-3,4-dihydro-2H-spiro[naphthalene-1,22′-[20]oxa[13]thia[1,14]diazatetracyclo[14.7.2.0^3,6.0^19,24]pentacosa [8,16,18,24]tetraen]-7′-yl)imino)diacetate-trifluoroacetic Acid], the 50% inhibitory concentration (IC50) in test [1] (Homo sapiens, OPM-2, 16 h) amounted to 0.104 µM; in test [2] it was 0.000647 µM.
Consider `Cc1nc(CN(Cc2noc(C)n2)[C@H]2/C=C/CC[C@@H](C)S(=O)(=O)NC(=O)c3ccc4c(c3)N(C[C@@H]3CC[C@H]32)C[C@@]2(CCCc3cc(Cl)ccc32)CO4)no1` [Example 602, (1S,3′R,6′R,7′S,8′E,12′R)-7′-(bis((5-methyl-1,2,4-oxadiazol-3-yl)methyl)amino)-6-chloro-12′-methyl-3,4-dihydro-2H,15′H-spiro[naphthalene-1,22′-[20]oxa[13]thia[1,14]diazatetracyclo[14.7.2.0^3,6.0^19,24]pentacosa [8,16,18,24]tetraen]-15′-one 13′,13′-dioxide], for which the IC50 in test [1] (Homo sapiens, OPM-2, 16 h) came to 0.727 µM; in test [2] it was 0.00174 µM.
The like results for `Cc1nc(CO[C@H]2/C=C/CC[C@@H](C)S(=O)(=O)NC(=O)c3ccc4c(c3)N(C[C@@H]3CC[C@H]32)C[C@@]2(CCCc3cc(Cl)ccc32)CO4)no1` [Example 603, (1S,3′R,6′R,7′S,8′E,12′R)-6-chloro-12′-methyl-7′-((5-methyl-1,2,4-oxadiazol-3-yl)methoxy)-3,4-dihydro-2H,15′H-spiro[naphthalene-1,22′-[20]oxa[13]thia[1,14]diazatetracyclo[14.7.2.0^3,6.0^19,24]pentacosa [8,16,18,24]tetraen]-15′-one 13′,13′-dioxide] were, in that order, 0.439 µM and 0.000667 µM.
The like results for `CC[C@@H]1CC/C=C/[C@H](OC(N)=O)[C@@H]2CC[C@H]2CN2C[C@@]3(CCCc4cc(Cl)ccc43)COc3ccc(cc32)C(=O)NS1(=O)=O` [Example 610, (1S,3′R,6′R,7′S,8′E,12′R)-6-chloro-12′-ethyl-13′,13′-dioxido-15′-oxo-3,4-dihydro-2H-spiro[naphthalene-1,22′-[20]oxa[13]thia[1,14]diazatetracyclo[14.7.2.0^3,6.0^19,24]pentacosa [8,16,18,24]tetraen]-7′-yl carbamate] were, in that order, 1.14 µM and 0.000923 µM.
As to `COC(=O)CC[C@@H]1CC/C=C/[C@H](O)[C@@H]2CC[C@H]2CN2C[C@@]3(CCCc4cc(Cl)ccc43)COc3ccc(cc32)C(=O)NS1(=O)=O` [Example 616], the half-maximal inhibitory concentration (IC50) in test [1] stood at 0.482 µM; in test [2], 0.000179 µM.
For `COC(=O)C[C@H]1CC/C=C/[C@H](O)[C@@H]2CC[C@H]2CN2C[C@@]3(CCCc4cc(Cl)ccc43)COc3ccc(cc32)C(=O)NS1(=O)=O` [Example 620] the same measures were 4.08 µM and 0.00071 µM.
The like results for `CCOC(=O)CO[C@H]1/C=C/CC[C@@H](CC(=O)OC)S(=O)(=O)NC(=O)c2ccc3c(c2)N(C[C@@H]2CC[C@H]21)C[C@@]1(CCCc2cc(Cl)ccc21)CO3` [Example 623] were, in that order, 0.483 µM and 0.000642 µM.
Take `COC(=O)C[C@@H]1CC/C=C/[C@H](OC)[C@@H]2CC[C@H]2CN2C[C@@]3(CCCc4cc(Cl)ccc43)COc3ccc(cc32)C(=O)NS1(=O)=O` [Example 624]: the figures for the IC50 in test [1] and in test [2] were 0.455 µM and 0.000338 µM, respectively.
`COC(=O)CC1C(C)CC=CC(O)C2CCC2CN2CC3(CCCc4cc(Cl)ccc43)COc3ccc(cc32)C(=O)NS1(=O)=O` (stereo not drawn) [Example 647]: the concentration for half-maximal inhibition (IC50) is 0.131 µM in test [1] (Homo sapiens, OPM-2, 16 h) and 0.000188 µM in test [2].
The like results for `CC[C@@H]1CC/C=C/[C@H](O)[C@@H]2CC[C@H]2CN2C[C@@]3(CCCc4cc(Cl)ccc43)COc3cc(F)c(cc32)C(=O)NS1(=O)=O` [Example 655, (1S,3′R,6′R,7′S,8′E,12′R)-6-chloro-12′-ethyl-17′-fluoro-7′-hydroxy-3,4-dihydro-2H,15′H-spiro[naphthalene-1,22′-[20]oxa[13]thia[1,14]diazatetracyclo[14.7.2.0^3,6.0^19,24]pentacosa [8,16,18,24]tetraen]-15′-one 13′,13′-dioxide] were, in that order, 0.947 µM and 0.000884 µM.
For `CC[C@@H]1CC/C=C/[C@H](O)[C@@H]2CC[C@H]2CN2C[C@@]3(CCCc4cc(Cl)ccc43)COc3cc(Cl)c(cc32)C(=O)NS1(=O)=O` [Example 657, (1S,3′R,6′R,7′S,8′E,12′R)-6,17′-dichloro-12′-ethyl-7′-hydroxy-3,4-dihydro-2H,15′H-spiro[naphthalene-1,22′-[20]oxa[13]thia[1,14]diazatetracyclo[14.7.2.0^3,6.0^19,24]pentacosa[8,16,18,24]tetraen]-15′-one 13′,13′-dioxide] the same measures were 24.7 µM and 0.0112 µM.
In the case of `O=C1NS(=O)(=O)NCCC/C=C/[C@H](O)[C@@H]2CC[C@H]2CN2C[C@@]3(CCCc4cc(Cl)ccc43)COc3ccc1cc32` [Example 660, (1S,3′R,6′R,7′S,8′E)-6-chloro-7′-hydroxy-3,4-dihydro-2H,16′H-spiro[naphthalene-1,23′-[21]oxa[14]thia[1,13,15]triazatetracyclo[15.7.2.0^3,6.0^20,25]hexacosa[8,17,19,25]tetraen]-16′-one 14′,14′-dioxide], the IC50 in test [1] (Homo sapiens, OPM-2, 16 h) is 0.416 µM; in test [2] it was 0.000376 µM.
